Values of other authors as cited in PMC8696521 (RSC Advances, 2021).
Read-outs that look alike come from different tables or passages of the source. One block for each substance: values may come before it.

Key:
ACE = conditions: for Category of ACEI peptide by interaction with ACE: reduced IC50 values following incubation with ACE
[1] = peptide from P. fucata muscle

Substance: IKPVQ
Category of ACEI peptide by interaction with ACE (ACE): pro-drug substrates

Substance: WVYY
ACE inhibition pattern (ACE; hemp seed protein hydrolysate peptides): mixed-mode type of ACE inhibition

Substance: VVSLSIPR
ACE inhibition pattern (ACE): competitive inhibitors

Substance: LSGYGP
ACE inhibition pattern (ACE): noncompetitive

ACEI IC50 (ACE; from pearl oyster shell protein hydrolysate): 5.82 µg/mL
Substance: GVGSPY

Substance: IKPVA
Category of ACEI peptide by interaction with ACE (ACE): pro-drug substrates

Substance: GAGLPGKRER
Antioxidant activity [1]: strong antioxidant activity

IC50 (ACE; read-out: ACEI IC50): 110 nM
Substance: LIVT

Substance: FHAPWK
ACE inhibition pattern (ACE): competitive inhibitors
